Assay results published in US6608086B2, “Dihydropyridines and new uses thereof” (Synaptic Pharmaceutical Corporation, priority 1993, dated 2003).
pKi: −log10 of the molar value. Structures can show the parent of a compound that is named as a salt. Where two headings read alike, the source gives them in different places. Values belong to the compound of their own block, whether it stands above or below them.

Assays:
[1] = target: T1, α1A Human Adrenergic Receptor (Homo sapiens, UniProt P25100); assay: Radioligand binding, [3H]prazosin, cloned human α1A adrenergic receptor; conditions: for pKi: pKi alpha-1 1a; for Ki: [3H]prazosin
T1 construct: The entire coding region of α1A (1719 bp); expressed in transfected cells
T1 sequence (P25100 1-572): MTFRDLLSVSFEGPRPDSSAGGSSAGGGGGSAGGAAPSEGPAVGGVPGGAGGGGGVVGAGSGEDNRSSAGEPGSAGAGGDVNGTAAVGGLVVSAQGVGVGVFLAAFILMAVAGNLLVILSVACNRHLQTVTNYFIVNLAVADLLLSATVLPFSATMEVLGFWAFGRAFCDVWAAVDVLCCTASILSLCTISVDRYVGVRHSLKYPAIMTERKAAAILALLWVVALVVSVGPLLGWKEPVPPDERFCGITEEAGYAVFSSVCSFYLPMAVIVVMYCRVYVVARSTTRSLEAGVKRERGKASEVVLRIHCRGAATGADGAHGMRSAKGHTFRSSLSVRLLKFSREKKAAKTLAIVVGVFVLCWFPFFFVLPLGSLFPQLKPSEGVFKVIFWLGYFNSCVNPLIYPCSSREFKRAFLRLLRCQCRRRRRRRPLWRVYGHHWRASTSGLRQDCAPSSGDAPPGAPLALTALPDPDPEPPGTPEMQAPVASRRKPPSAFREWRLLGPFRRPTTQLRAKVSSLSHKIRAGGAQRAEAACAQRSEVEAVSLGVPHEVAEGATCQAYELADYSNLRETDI
Method: (§1) The protocols for these experiments are given below.
(§2) These cell lines were prepared by transfecting the cloned cDNA or cloned genomic DNA or constructs containing both genomic DNA and cDNA encoding the human α-adrenergic receptors as follows:
α1A Human Adrenergic Receptor:
The cells were grown, in a controlled environment (37° C., 5% CO2), as monolayers in Dulbecco's modified Eagle's Medium (GIBCO, Grand Island, N.Y.) containing 25 mM glucose and supplemented with 10% bovine calf serum, 100 units/ml penicillin g, and 100 μg/ml streptomycin sulfate.
(§3) Radioligand Binding Assays:
(§4) Transfected cells from culture flasks were scraped into 5 ml of 5 mM Tris-HCl, 5 mM EDTA, pH 7.5, and lysed by sonication. The cell lysates were centrifuged at 1000 rpm for 5 min at 4° C., and the supernatant was centrifuged at 30,000× g for 20 min at 4° C. The pellet was suspended in 50 mM Tris-HCl, 1 mM MgCl2, and 0.1% ascorbic acid at pH 7.5. Binding of the α1 antagonist [^3H]prazosin (0.5 nM, specific activity 76.2 Ci/mmol) to membrane preparations of LM(tk−) cells was done in a final volume of 0.25 ml and incubated at 37° C. for 20 min. Nonspecific binding was determined in the presence of 10 μM phentolamine. The reaction was stopped by filtration through GF/B filters using a cell harvester.

[2] = target: T2, α1C Human Adrenergic Receptor (Homo sapiens, UniProt P35348); assay: Radioligand binding, [3H]prazosin, cloned human α1C adrenergic receptor
T2 construct: The entire coding region of α1C (1401 bp); expressed in transfected cells
T2 sequence (P35348 1-466): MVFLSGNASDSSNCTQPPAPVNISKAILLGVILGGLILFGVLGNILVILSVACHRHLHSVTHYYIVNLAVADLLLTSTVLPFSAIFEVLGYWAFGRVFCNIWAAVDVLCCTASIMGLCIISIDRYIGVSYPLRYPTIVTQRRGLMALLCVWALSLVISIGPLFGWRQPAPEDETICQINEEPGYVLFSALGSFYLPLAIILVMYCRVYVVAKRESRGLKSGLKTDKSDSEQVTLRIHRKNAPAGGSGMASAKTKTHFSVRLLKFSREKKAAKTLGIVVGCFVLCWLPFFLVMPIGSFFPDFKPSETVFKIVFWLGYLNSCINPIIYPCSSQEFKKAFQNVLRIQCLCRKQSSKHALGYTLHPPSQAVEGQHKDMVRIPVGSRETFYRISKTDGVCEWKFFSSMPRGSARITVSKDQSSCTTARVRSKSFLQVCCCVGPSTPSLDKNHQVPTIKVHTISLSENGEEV
Method: as §1, §2
α1C Human Adrenergic Receptor:
The construct involved ligating three partial overlapping fragments: a 5′, 0.6 kb HincII genomic clone, a central 1.8 EcoRI hippocampal cDNA clone, and a 3′ 0.6Kb PstI genomic clone. The hippocampal cDNA fragment overlaps with the 5′ and 3′ genomic clones so that the HincII and PstI sites at the 5′ and 3′ ends of the cDNA clone, respectively, were utilized for ligation. This full-length clone was cloned into the KpnI site of the expression vector, using the 5′ and 3′ KpnI sites of the fragment, derived from vector (i.e., pBluescript) and 3′-untranslated sequences, respectively. Stable cell lines were selected as described above.
as §3, §4

[3] = target: T3, α1B Human Adrenergic Receptor (Homo sapiens, UniProt P35368); assay: Radioligand binding, [3H]prazosin, cloned human α1B adrenergic receptor
T3 construct: The entire coding region of α1B (1563 bp); expressed in transfected cells
T3 sequence (P35368 1-520): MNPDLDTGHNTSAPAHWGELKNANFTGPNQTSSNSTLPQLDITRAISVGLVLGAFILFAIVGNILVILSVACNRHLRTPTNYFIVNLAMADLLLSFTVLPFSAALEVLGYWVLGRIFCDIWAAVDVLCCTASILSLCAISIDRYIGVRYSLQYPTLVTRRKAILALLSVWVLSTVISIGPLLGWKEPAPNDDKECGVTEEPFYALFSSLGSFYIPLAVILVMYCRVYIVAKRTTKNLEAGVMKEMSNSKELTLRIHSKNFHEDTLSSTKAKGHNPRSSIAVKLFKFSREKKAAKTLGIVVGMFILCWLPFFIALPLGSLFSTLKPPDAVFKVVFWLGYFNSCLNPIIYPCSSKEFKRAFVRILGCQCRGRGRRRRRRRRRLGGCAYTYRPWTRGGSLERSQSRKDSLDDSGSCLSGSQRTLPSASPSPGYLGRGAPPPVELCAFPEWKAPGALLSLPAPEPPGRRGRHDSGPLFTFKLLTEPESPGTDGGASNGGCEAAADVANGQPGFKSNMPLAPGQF
Method: as §1, §2
α1B Human Adrenergic Receptor:
The construct involved ligating the full-length containing EcoRI brainstem cDNA fragment from λ ZapII into the expression vector. Stable cell lines were selected as described above.
as §3, §4

[4] = cloned human α1C receptor, LM(tk−) cell membranes, read-out: pKi alpha-1 1c (converted)
[5] = cloned human α1B receptor, LM(tk−) cell membranes, read-out: pKi alpha-1 1b (converted)
[6] = cloned human α1A receptor, LM(tk−) cell membranes, read-out: pKi alpha-1 1a (converted)
[7] = cloned human receptor, LM(tk-) cell membranes, mean, read-out: PKi alpha-1 1a (converted)
[8] = cloned human receptor, LM(tk-) cell membranes, mean, read-out: PKi alpha-1 1c (converted)
[9] = cloned human receptor, LM(tk-) cell membranes, mean, read-out: PKi alpha-1 1b (converted)

melting point: 88 to 93 °C
Structure (SMILES): CCC1=C(C(N)=O)C(c2ccc([N+](=O)[O-])cc2)C(C(=O)NCCCN2CCC(c3ccccc3)(c3ccccc3)CC2)=C(COCCN=[N+]=[N-])N1 (centres unmarked)

melting point: 136 to 137 °C
Structure (SMILES): COC(=O)C1=C(C)NC(C)=C(C(=O)NCCCCN2CCC(c3ccccc3)CC2)C1c1ccc([N+](=O)[O-])cc1 (centres unmarked) (as salt: hydrochloride) (hydrate or solvate) [Example 3, 1,4-Dihydro-3-methoxycarbonyl-2,6-dimethyl-4-(4-nitrophenyl)-5-{N-[4-(4-phenylpiperidin-1-yl)butyl]}carbozamidopyridine hydrochloride hydrate]

Ki [1, 6]: 2950 nM
Ki [2, 4]: 6.92 nM
Ki [3, 5]: 4170 nM
Structure (SMILES): CCC1=C(C(=O)NC)C(c2ccc([N+](=O)[O-])cc2)C(C(=O)NCCCN2CCC(OC)(c3ccccc3)CC2)=C(CC)N1 (centres unmarked) [Example 108]

Ki [1, 6]: 912 nM
Ki [2, 4]: 10.7 nM
Ki [3, 5]: 417 nM
Structure (SMILES): CCC1=C(C(=O)O)C(c2ccc([N+](=O)[O-])cc2)C(C(=O)NCCCN2CCC(c3ccccc3)(c3ccccc3)CC2)=C(CC)N1 (centres unmarked) [Example 130, 2,6-Diethyl-1,4-dihydro-4-(4-nitrophenyl)-5-{N-[3-(4,4-diphenylpiperidin-1-yl)propyl]}carboxamidopyridine-3-carboxylic acid]

Ki [1, 6]: 7240 nM
Ki [2, 4]: 7080 nM
Ki [3, 5]: 14500 nM
Structure (SMILES): CCC1=C(C(=O)NCCCN2CCC(c3ccccc3)(c3ccccc3)CC2)C(c2ccc([N+](=O)[O-])cc2)C(C(=O)OC(C)(C)C)=C(COCCN)N1 (centres unmarked) [Example 140]

Ki [1, 6]: 490 nM
Ki [2, 4]: 933 nM
Ki [3, 5]: 219 nM
Structure (SMILES): CC1=C(C(=O)OCC[Si](C)(C)C)C(c2ccc([N+](=O)[O-])cc2)C(C(=O)NCCCN2CCC(c3ccccc3)(c3ccccc3)CC2)=C(COCCN=[N+]=[N-])N1 (centres unmarked) [Example 152, 2-((2-Azidoethyl)oxy)methyl-1,4-dihydro-6-methyl-s-(2-trimethylsilylethoxy)carbonyl-4-(4-nitro)phenyl-3-(N-(3-(4,4-diphenylpiperidin-1-yl)propyl))carboxamidopyridine]

Ki [1, 7]: 3390 nM
Ki [2, 8]: 3.63 nM
Ki [3, 9]: 1260 nM
Structure (SMILES): CC1=C(C(N)=O)C(c2ccc([N+](=O)[O-])cc2)C(C(=O)NCCCN2CCC(C#N)(c3ccccc3)CC2)=C(COCCN)N1 (centres unmarked) [Example 215]

Ki [1, 7]: 347 nM
Ki [2, 8]: 2.51 nM
Ki [3, 9]: 204 nM
Structure (SMILES): CC(=O)C1=C(C)NC(COCCCN)=C(C(=O)NCCCN2CCC(c3ccccc3)(c3ccccc3)CC2)C1c1ccc([N+](=O)[O-])cc1 (centres unmarked) [Example 236, 5-Acetyl-2-((3-aminopropyl)oxy)methyl-1,4-dihydro-6-methyl-4-(4-nitro)phenyl-3-(N-(3-(4,4-diphenylpiperidin-1-yl)propyl)) carboxamidopyridine]

Further lines, the compound ahead of its results:

Structure (SMILES): CCOC(=O)C1=C(CC(=O)NCCCN2CCC(c3ccccc3)(c3ccccc3)CC2)NC(C)=C(C(=O)OC)C1c1ccc([N+](=O)[O-])cc1 (centres unmarked) (as salt: fumarate) [Example 89, 3-Ethoxycarbonyl-1,4-dihydro-5-methoxycarbonyl-6-methyl-4-(4-nitro)phenyl-2-(N-(3-(4,4,-diphenylpiperidin-1-yl)propyl)carboxamido)methylpyridine, fumarate salt]
melting point: 134 to 137 °C

Structure (SMILES): CCC1=C(C(=O)NCCCN2CCC(c3ccccc3)(c3ccccc3)CC2)C(c2ccc([N+](=O)[O-])cc2)C(C(=O)OCc2ccccc2)=C(C)N1 (centres unmarked) (as salt: hydrochloride) (hydrate or solvate) [Example 4, 5-Benzyloxycarbonyl-2-ethyl-1,4-dihydro-6-methyl-4-(4-nitrophenyl)-3-(N-(3-(4,4-diphenylpiperidin-1-yl)propyl)carboxamido) pyridine, Hydrochloride Salt, Hydrate]
melting point: 195 to 198 °C (dec.)

Structure (SMILES): CNC(=O)C1=C(C)NC(C)=C(C(=O)NCCCN2CCC(c3ccccc3)(c3ccccc3)CC2)C1c1ccc([N+](=O)[O-])cc1 (single isomer, unassigned; (+)) [(+)-119, 1,4-dihydro-2,6-dimethyl-5-(N-methyl) carboxamido-4-(4-nitrophenyl)-3-{N-[3-(4,4-diphenylpiperidin-1-yl)propyl]} carboxamidopyridine]
pKi [1]: 5.89
Ki [2, 4]: 380 nM
Ki [3, 5]: 832 nM

Structure (SMILES): CNC(=O)C1=C(C)NC(C)=C(C(=O)NCCCN2CCC(c3ccccc3)(c3ccccc3)CC2)C1c1ccc([N+](=O)[O-])cc1 (single isomer, unassigned; (-)) [(−)-119, 1,4-dihydro-2,6-dimethyl-5-(N-methyl) carboxamido-4-(4-nitrophenyl)-3-{N-[3-(4,4-diphenylpiperidin-1-yl)propyl]} carboxamidopyridine]
pKi [1]: 5.93
Ki [2, 4]: 2.57 nM
Ki [3, 5]: 676 nM

Structure (SMILES): COC(=O)C1=C(C)NC(C)=C(C(=O)NCCCN2CCc3ccccc3C2)C1c1ccc([N+](=O)[O-])cc1 (centres unmarked) [Example 59, 1,4-Dihydro-5-{N-[3-(1,2,3,4-tetrahydroisoquinolin-2-yl)propyl]}carboxamido-3-methoxycarbonyl-2,6-dimethyl-4-(4-nitrophenyl)pyridine hydrochloride hydrate]
Ki ([1]; cloned human receptor in LM(tk-) cell membranes, SEM and n in lines below, read-out: pKi alpha-1 1a (converted)): 513 nM
Ki ([2]; cloned human receptor in LM(tk-) cell membranes, SEM and n in lines below, read-out: pKi alpha-1 1c (converted)): 245 nM
Ki ([3]; cloned human receptor in LM(tk-) cell membranes, SEM and n in lines below, read-out: pKi alpha-1 1b (converted)): 389 nM

Structure (SMILES): COC(=O)C1=C(C)NC(C)=C(C(=O)NCCCN2CCC(C(=O)OC)(c3ccccc3)CC2)C1c1ccc([N+](=O)[O-])cc1 (centres unmarked) [Example 206, 1,4-Dihydro-2,6-dimethyl-5-methoxycarbonyl-3-{N-[3-(4-methoxycarbonyl-4-phenylpiperidin-1-yl)propyl]}carboxamido-4-(4-nitrophenyl)pyridine]
Ki [1, 7]: 1150 nM
